Test results published in paper PMC11889516 (Microbial Biotechnology, 2025).

T1: CYP116B234 (Rhodococcus globerulus, UniProt A0ABU4C0V8)
T1 construct: gene R3Q16_26300; full-length, N-terminal polyhistidine tag (GenBank MCE4265947.1)
T1 sequence (A0ABU4C0V8 1-767): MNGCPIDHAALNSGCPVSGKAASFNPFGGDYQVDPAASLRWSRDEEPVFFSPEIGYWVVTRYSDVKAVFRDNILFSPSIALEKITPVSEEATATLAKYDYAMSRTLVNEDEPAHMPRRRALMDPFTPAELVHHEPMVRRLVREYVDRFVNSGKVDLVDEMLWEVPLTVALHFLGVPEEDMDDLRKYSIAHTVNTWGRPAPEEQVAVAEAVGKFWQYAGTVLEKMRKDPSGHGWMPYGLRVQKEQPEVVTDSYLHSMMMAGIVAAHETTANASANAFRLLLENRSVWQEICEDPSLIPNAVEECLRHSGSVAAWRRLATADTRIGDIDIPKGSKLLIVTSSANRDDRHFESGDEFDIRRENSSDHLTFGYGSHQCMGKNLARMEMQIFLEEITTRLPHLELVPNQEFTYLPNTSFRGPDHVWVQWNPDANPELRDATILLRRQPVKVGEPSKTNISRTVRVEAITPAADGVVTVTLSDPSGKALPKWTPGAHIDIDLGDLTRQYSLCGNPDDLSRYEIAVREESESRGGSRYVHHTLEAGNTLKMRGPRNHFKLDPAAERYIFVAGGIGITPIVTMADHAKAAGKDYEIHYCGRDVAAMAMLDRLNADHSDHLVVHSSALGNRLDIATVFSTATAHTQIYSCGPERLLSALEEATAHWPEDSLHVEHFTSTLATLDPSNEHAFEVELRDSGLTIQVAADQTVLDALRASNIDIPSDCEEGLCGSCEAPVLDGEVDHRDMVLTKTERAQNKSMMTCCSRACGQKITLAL


Columns and labels:
CYP116B234 = molecular target: T1, CYP116B234; test: UV-visible difference spectroscopy titration (heme spin-state shift); also NADPH consumption and turnover with purified enzyme; type: binding
purified protein [1] = substrate: NC(=O)C1=CN([C@@H]2O[C@H](COP(=O)(O)OP(=O)(O)OC[C@H]3O[C@@H](n4cnc5c(N)ncnc54)[C@H](OP(=O)(O)O)[C@@H]3O)[C@@H](O)[C@H]2O)C=CC1; test: purified protein; type: biochemical, Rhodococcus globerulus; settings: FMN, [2Fe-2S], heme reductase domain; varied: cofactor
purified protein [2] = substrate: NC(=O)C1=CN([C@@H]2O[C@H](COP(=O)(O)OP(=O)(O)OC[C@H]3O[C@@H](n4cnc5c(N)ncnc54)[C@H](O)[C@@H]3O)[C@@H](O)[C@H]2O)C=CC1; test: purified protein; settings: FMN, [2Fe-2S], heme reductase domain; varied: cofactor

| Kd (CYP116B234) | Molecule | Km (purified protein [1]) | Km (purified protein [2]) |
| --- | --- | --- | --- |
| 700 ± 100 nM | O=C(O)Cc1ccccc1O [2-HPA, 2‐hydroxyphenylacetic acid] |  |  |
| 1900 ± 100 nM | O=C(O)CCc1ccccc1O [HPPA, 3‐(2‐hydroxyphenyl)propionic acid] |  |  |
|  | CYP116B234 (Rhodococcus globerulus) (protein, full-length, N-terminal polyhistidine tag (GenBank MCE4265947.1)) MNGCPIDHAALNSGCPVSGKAASFNPFGGDYQVDPAASLRWSRDEEPVFFSPEIGYWVVTRYSDVKAVFRDNILFSPSIALEKITPVSEEATATLAKYDYAMSRTLVNEDEPAHMPRRRALMDPFTPAELVHHEPMVRRLVREYVDRFVNSGKVDLVDEMLWEVPLTVALHFLGVPEEDMDDLRKYSIAHTVNTWGRPAPEEQVAVAEAVGKFWQYAGTVLEKMRKDPSGHGWMPYGLRVQKEQPEVVTDSYLHSMMMAGIVAAHETTANASANAFRLLLENRSVWQEICEDPSLIPNAVEECLRHSGSVAAWRRLATADTRIGDIDIPKGSKLLIVTSSANRDDRHFESGDEFDIRRENSSDHLTFGYGSHQCMGKNLARMEMQIFLEEITTRLPHLELVPNQEFTYLPNTSFRGPDHVWVQWNPDANPELRDATILLRRQPVKVGEPSKTNISRTVRVEAITPAADGVVTVTLSDPSGKALPKWTPGAHIDIDLGDLTRQYSLCGNPDDLSRYEIAVREESESRGGSRYVHHTLEAGNTLKMRGPRNHFKLDPAAERYIFVAGGIGITPIVTMADHAKAAGKDYEIHYCGRDVAAMAMLDRLNADHSDHLVVHSSALGNRLDIATVFSTATAHTQIYSCGPERLLSALEEATAHWPEDSLHVEHFTSTLATLDPSNEHAFEVELRDSGLTIQVAADQTVLDALRASNIDIPSDCEEGLCGSCEAPVLDGEVDHRDMVLTKTERAQNKSMMTCCSRACGQKITLAL | 0.5 ± 0.4 µM | 240 ± 20 µM |
